From PubChem BioAssay (NCI) come the findings set out here.

Test systems include UO-31 renal; M14 melanoma; HOP-62 NSCLC; T-47D breast; CAKI-1 renal; BT-549 breast; K-562 leukemia; CCRF-CEM leukemia; ACHN renal; SF-539 CNS.
Holding throughout (test): growth of human tumour cells (NCI), 48 h

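Briefly, cells in 96-well plates were exposed to five compound concentrations for 48 h, and endpoints were estimated by linear interpolation. Abbreviation: GI50, concentration required for 50% inhibition of growth. TGI denotes the concentration required for complete inhibition of growth.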

Consider `CC12CCC(O)CC1CCC1C2CCC2(C)C(C3=CC(=O)OC3)CCC12O` (configuration not stated), for which the TGI with UO-31 renal was 8.23 µM; in the test with M14 melanoma it was 19 µM; in the test with HOP-62 NSCLC, 6.01 µM; in the test with T-47D breast it was 14.7 µM; with CAKI-1 renal, above 19.8 µM; in the test with BT-549 breast, 4.53 µM. Further, the TGI in the test with K-562 leukemia is above 90.5 µM; with CCRF-CEM leukemia, above 100 µM; with ACHN renal, 10.3 µM; in the test on SF-539 CNS, 3.2 µM.

As to `Cn1cnc([N+](=O)[O-])c1Sc1nnc(-c2cccnc2)n1C`, the TGI with UO-31 renal was 53.8 µM; with M14 melanoma it was 35.4 µM; in the test with HOP-62 NSCLC it was above 100 µM; in the test on T-47D breast it was 32 µM; in the test on CAKI-1 renal it was 42.7 µM; in the test on BT-549 breast it was 36.5 µM. Also, the TGI is 57.8 µM with K-562 leukemia, 45 µM in the test on CCRF-CEM leukemia, 36.7 µM with ACHN renal and 55.2 µM in the test with SF-539 CNS.

In the case of `O=C1CC(c2ccc3c(c2)OCO3)Nc2ccccc21` (configuration not stated), the GI50 with UO-31 renal was 5.9 µM; in the test with M14 melanoma, 14 µM; in the test on HOP-62 NSCLC, 14.2 µM; in the test on T-47D breast it was 5.23 µM; with CAKI-1 renal it was 5.31 µM; in the test on BT-549 breast it was 5.99 µM. Besides, the GI50 in the test on K-562 leukemia was 3.33 µM; with CCRF-CEM leukemia it was 3.85 µM; in the test with ACHN renal, 7.22 µM; with SF-539 CNS, 10.8 µM. Besides, the TGI with UO-31 renal turned out to be 19.4 µM; in the test with M14 melanoma, 30.5 µM; in the test with HOP-62 NSCLC, 86 µM; in the test on T-47D breast, 73.9 µM; with CAKI-1 renal, 47.5 µM; with BT-549 breast, 55.5 µM. Also, the TGI in the test on K-562 leukemia is above 100 µM; with CCRF-CEM leukemia it was above 100 µM; in the test with ACHN renal, above 87.4 µM; in the test with SF-539 CNS, 24 µM.

Take `CO[C@H](C(=O)[C@@H](O)[C@@H](C)O)[C@@H]1Cc2cc3cc(O[C@H]4C[C@@H](O[C@H]5C[C@@H](O)[C@H](O)C(C)O5)[C@H](O)C(C)O4)c(C)c(O)c3c(O)c2C(=O)[C@H]1O[C@H]1C[C@@H](O[C@H]2C[C@@H](O[C@H]3C[C@](C)(O)C(=O)C(C)O3)[C@@H](O)C(C)O2)[C@H](O)C(C)O1` (some centres not stated): the GI50 was 0.159 µM in the test on UO-31 renal; 0.12 µM in the test on M14 melanoma; 0.0653 µM in the test with HOP-62 NSCLC; 0.0663 µM in the test on T-47D breast; 0.924 µM with CAKI-1 renal; 0.0356 µM with BT-549 breast. Also, the GI50 in the test on K-562 leukemia is 0.1 µM; in the test on CCRF-CEM leukemia it was 0.211 µM; in the test with ACHN renal, 0.154 µM; in the test with SF-539 CNS, 0.0473 µM. Also, the TGI was 1.6 µM in the test on UO-31 renal; 0.817 µM in the test on M14 melanoma; above 33.2 µM with CAKI-1 renal; 0.157 µM in the test on BT-549 breast; above 33.2 µM in the test on K-562 leukemia; above 33.2 µM with CCRF-CEM leukemia. Moreover, the TGI came out at 1.55 µM with ACHN renal and 0.224 µM in the test on SF-539 CNS.

Turning to `CCC(CO)Nc1nc2ccc(Cl)cc2c2ccccc12` (configuration not stated), the GI50 is 4.01 µM in the test on UO-31 renal; 12.8 µM with M14 melanoma; 7.95 µM with HOP-62 NSCLC; 6.13 µM in the test on T-47D breast; 2.82 µM in the test with CAKI-1 renal; 10.1 µM in the test with BT-549 breast. The GI50 with K-562 leukemia was 3.01 µM; in the test with CCRF-CEM leukemia, 4.24 µM; with ACHN renal, 9.05 µM; in the test on SF-539 CNS, 10.4 µM. Further, the TGI in the test on UO-31 renal was determined as 16.3 µM; with M14 melanoma it was 25.6 µM; in the test with HOP-62 NSCLC it was 21 µM; in the test on T-47D breast, 20.9 µM; with CAKI-1 renal, 14.6 µM; in the test with BT-549 breast it was 21.7 µM. In addition, the TGI in the test with K-562 leukemia worked out at 11.5 µM; in the test on CCRF-CEM leukemia, 17.4 µM; in the test on ACHN renal it was 21.1 µM; in the test with SF-539 CNS, 22.2 µM.

With `CSc1nc2c(c(=O)[nH]1)N=C1c3ccccc3C(=O)C1C(c1ccccc1)N2` (configuration not stated), the GI50 was 5.23 µM in the test on UO-31 renal; 3.29 µM in the test with M14 melanoma; 5.37 µM with HOP-62 NSCLC; 4.6 µM in the test with T-47D breast; 2.18 µM in the test with CAKI-1 renal; 5.35 µM in the test with BT-549 breast. Further, the GI50 in the test with K-562 leukemia was 1.27 µM; in the test on CCRF-CEM leukemia, 6.92 µM; with ACHN renal it was 3.73 µM; in the test on SF-539 CNS, 2.84 µM. In addition, the TGI in the test on UO-31 renal, in the test with M14 melanoma, with HOP-62 NSCLC, with T-47D breast, with CAKI-1 renal and in the test on BT-549 breast was above 100 µM throughout. Moreover, the TGI in the test on K-562 leukemia is above 100 µM; in the test on CCRF-CEM leukemia, above 100 µM; with ACHN renal it was above 100 µM; in the test with SF-539 CNS, 17.9 µM.

Turning to `COc1ccc2c(c1)/C(=C/c1c(C)nc3sc(C)nn13)C(=O)N2`, the GI50 in the test with UO-31 renal is 5.23 µM; in the test with M14 melanoma it was 1.79 µM; in the test with HOP-62 NSCLC, 4.35 µM; with T-47D breast it was 2.53 µM; in the test with CAKI-1 renal, 2.31 µM; in the test on BT-549 breast, 5.69 µM. In addition, the GI50 in the test on K-562 leukemia was 0.394 µM; with CCRF-CEM leukemia, 2.52 µM; with ACHN renal, 6.53 µM; in the test with SF-539 CNS it was 3.29 µM. The TGI in the test on UO-31 renal is above 100 µM; with M14 melanoma it was above 27.9 µM; with HOP-62 NSCLC, 61.9 µM; in the test with T-47D breast, above 100 µM; in the test on CAKI-1 renal it was above 100 µM; with BT-549 breast, above 100 µM. The TGI with CCRF-CEM leukemia is above 100 µM; in the test on ACHN renal it was above 100 µM; in the test on SF-539 CNS, above 50.7 µM.

Consider `O=C(/C=C/C12c3ccccc3C(c3ccccc31)C1C(=O)NC(=O)C12)c1ccncc1` (configuration not stated), for which the GI50 with UO-31 renal was 1.48 µM; in the test on M14 melanoma it was 2.44 µM; in the test on HOP-62 NSCLC it was 2.4 µM; with T-47D breast it was 2.82 µM; in the test with CAKI-1 renal it was 2.58 µM; with BT-549 breast it was 2.06 µM. Also, the GI50 in the test on K-562 leukemia is 1.88 µM; in the test with CCRF-CEM leukemia, 2.39 µM; in the test on ACHN renal, 2.83 µM; with SF-539 CNS, 2.03 µM. Further, the TGI with UO-31 renal was 4.8 µM; with M14 melanoma, 7.65 µM; with HOP-62 NSCLC it was 6.73 µM; with T-47D breast, 12.9 µM; with CAKI-1 renal, 11.7 µM; with BT-549 breast, 5.93 µM. Besides, the TGI in the test on K-562 leukemia was above 100 µM; in the test on CCRF-CEM leukemia, 8.87 µM; in the test with ACHN renal, 8.39 µM; in the test on SF-539 CNS, 5.72 µM.
